According to patent US7288653B2, “Inhibitors of proton-gated cation channels and their use in the treatment of ischaemic disorders” (PainCeptor Pharma Corporation, priority 1999, dated 2007):

Tested on: not given
Assay: not given
Settings: not given

Q: Which melting point does the source give for `C#CCN1CCc2c(-c3ccccc3)cc3c(c2C1)NC(=O)C3=NO` [8-(2-propynyl)-5-phenyl-6,7,8,9-tetrahydro-1H-pyrrolo-[3,2-h]-isoquinoline-2,3-dione-3-oxime] here?
A: 170 °C (dec.)

Q: For `O=C1Nc2c(cc(-c3ccccc3)c3c2CN(Cc2ccccc2)CC3)C1=NO` [8-benzyl-5-phenyl-6-7-8-9-tetrahydro-1H-pyrrolo-[3,2-h]-isoquinoline-2,3-dione-3-oxim], which melting point is on record?
A: 160 °C (dec.)

Q: With `O=C1Nc2c(cc(-c3ccccc3)c3c2CN(CC2CC2)CC3)C1=NO` [8-cyclopropylmethyl-5-phenyl-6,7,8,9-tetrahydro-1H-pyrrolo-[3,2-h]-isoquinoline-2,3-dione-3-oxime] as the compound, how does the melting point read?
A: 170 °C (dec.)

Target: T1, naturally occurring proton-gated cation channel in a HEK293 cell (Homo sapiens, UniProt P78348)
T1 construct: a naturally occurring proton-gated cation channel in a HEK293 cell; endogenous in cells; host or cells: HEK293
T1 sequence (P78348 1-528): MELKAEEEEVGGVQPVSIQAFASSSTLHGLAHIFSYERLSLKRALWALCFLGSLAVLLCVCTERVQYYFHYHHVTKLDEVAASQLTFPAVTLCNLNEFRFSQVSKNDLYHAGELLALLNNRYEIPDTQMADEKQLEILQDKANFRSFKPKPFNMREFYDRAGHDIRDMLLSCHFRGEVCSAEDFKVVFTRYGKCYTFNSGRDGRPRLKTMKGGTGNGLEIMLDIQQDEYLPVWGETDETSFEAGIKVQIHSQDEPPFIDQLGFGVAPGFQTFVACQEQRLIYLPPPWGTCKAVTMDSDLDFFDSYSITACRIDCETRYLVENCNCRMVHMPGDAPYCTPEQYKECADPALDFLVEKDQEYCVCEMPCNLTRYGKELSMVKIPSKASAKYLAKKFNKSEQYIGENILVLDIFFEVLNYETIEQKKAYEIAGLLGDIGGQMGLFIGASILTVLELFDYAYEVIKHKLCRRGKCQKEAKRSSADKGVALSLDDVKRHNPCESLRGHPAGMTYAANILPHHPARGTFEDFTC
Assay: Patch clamp of whole cell currents elicited by a drop in extracellular pH in HEK293 cells
Assay type: cell-based
Settings: extracellular pH drop from 7.4 to 6.5, group IC50 below 100 nM, read-out: IC50, inhibition of the proton activated response
Description: In this example the current flux induced by protons over the membrane of a naturally occurring proton-gated cation channel in a HEK293 cell was determined using patch clamp techniques.
Using this technique, the effects of the compounds for use according to the invention was investigated on whole cell currents elicited by a drop in extracellular pH from 7.4 to 6.5.

Q: For `CN1CCc2c(-c3ccc(F)cc3)cc3c(c2C1)NC(=O)C3=NO` [8-methyl-5-(4-fluorophenyl)-6,7,8,9-tetrahydro-1H-pyrrolo-[3,2-h]-isoquinoline-2,3-dione-3-oxim], which IC50 is on record?
A: < 100 nM

Q: With `CC(=O)ON=C1C(=O)Nc2c1cc(-c1ccccc1)c1c2CN(C)CC1` [8-methyl-5-phenyl-6,7,8,9-tetrahydro-1H-pyrrolo-[3,2-h]-isoquinoline-2,3-dione-3-acetyloxim] as the compound, how does the IC50 read?
A: < 100 nM

Q: With `CN1Cc2c(-c3ccccc3)cc3c(c2C1)NC(=O)C3=NO` [7-methyl-5-phenyl-1-6-7-8-tetrahydrobenzo-[2,1-b:3,4-c]-dipyrrole-2,3-dione-3-oxime] as the compound, how does the IC50 read?
A: < 100 nM

Q: Which IC50 does the source give for `CN1CCc2c(-c3ccc(Cl)cc3)cc3c(c2C1)NC(=O)C3=NO` [5-(4-chlorophenyl)-8-methyl-6-7-8-9-tetrahydro-1-H-pyrrolo-[3,2-h]-isoquinoline-2,3-dione-3-oxim] here?
A: < 100 nM

Q: Which IC50 does the source give for `CN1Cc2c(-c3cccc4ccccc34)cc3c(c2C1)NC(=O)C3=NO` [7-methyl-5-(1-naphthyl)-1-6-7-8-tetrahydrobenzo-[2,1-b:3,4-c]-dipyrrole-2,3-dione-3-oxime] here?
A: < 100 nM

Q: With `CN1CCc2c(-c3ccccc3)cc3c(c2C1)NC(=O)C3=NO` [8-methyl-5-phenyl-6-7-8-9-tetrahydro-1H-pyrrolo-[3,2-h]-isoquinoline-2,3-dione-3-oxim] as the compound, how does the IC50 read?
A: < 100 nM

Q: For `CCN1CCc2c(-c3ccccc3)cc3c(c2C1)NC(=O)/C3=N/O` [8-ethyl-5-phenyl-6-7-8-9-tetrahydro-1H-pyrrolo-[3,2-h]-isoquinoline-2,3-dione-3-oxim], which IC50 is on record?
A: < 100 nM

Same assay, conditions: extracellular pH drop from 7.4 to 6.5, group IC50 below 1 μM (of from 100 nM to 1 μM), read-out: IC50, inhibition of the proton activated response

Q: For `CN1CCc2c(-c3ccccc3)cc3c(c2C1)NC(=O)C3=NOC(=O)C(C)(C)C` [8-methyl-5-phenyl-6-7-8-9-tetrahydro-1-H-pyrrolo-[3.2-h]-isoquinoline-2,3-dione-3-O-2,2-dimethylpropanoyl-oxim], which IC50 is on record?
A: < 1000 nM

Q: With `COc1ccccc1-c1cc2c(c3c1CCN(C)C3)NC(=O)/C2=N\O` [8-methyl-5-(2-methoxyphenyl)-6-7-8-9-tetrahydro-1-H-pyrrolo-[3.2-h]-isoquinoline-2,3-dione-3-oxim] as the compound, how does the IC50 read?
A: < 1000 nM

Q: Which IC50 does the source give for `CN1CCc2c(-c3ccc4ccccc4c3)cc3c(c2C1)NC(=O)C3=NO` [5-(2-naphthyl)-8-methyl-6-7-8-9-tetrahydro-1-H-pyrrolo-[3.2-h]-isoquinoline-2,3-dione-3-oxim] here?
A: < 1000 nM

Q: Which IC50 does the source give for `CN1Cc2c(-c3ccccc3)cc3c(c2C1)NC(=O)C3=NO` [7-methyl-5-phenyl-1-6-7-8-tetrahydrobenzo-[2,1-b:3,4-c]-dipyrrole-2,3-dione-3-oxime] here?
A: < 1000 nM

Q: For `O=C1Nc2c(cc(-c3ccccc3)c3c2CN(Cc2ccccc2)CC3)C1=NO` [8-benzyl-5-phenyl-6-7-8-9-tetrahydro-1H-pyrrolo-[3,2-h]-isoquinoline-2,3-dione-3-oxim], which IC50 is on record?
A: < 1000 nM

Q: For `CCN1Cc2c(-c3ccccc3)cc3c(c2C1)NC(=O)C3=NO` [7-ethyl-5-phenyl-1-6-7-8-tetrahydrobenzo-[2,1-b:3,4-c]-dipyrrole-2,3-dione-3-oxime], which IC50 is on record?
A: < 1000 nM

Q: Which IC50 does the source give for `O=C1Nc2c(cc(-c3ccccc3)c3c2CNCC3)C1=NO` [5-phenyl-6-7-8-9-tetrahydro-1H-pyrrolo-[3,2-h]-isoquinoline-2,3-dione-3-oxim] here?
A: < 1000 nM

Q: For `COc1cccc(-c2cc3c(c4c2CCN(C)C4)NC(=O)/C3=N\O)c1` [8-methyl-5-(3-methoxyphenyl)-6-7-8-9-tetrahydro-1-H-pyrrolo-[3.2-h]-isoquinoline-2,3-dione-3-oxim], which IC50 is on record?
A: < 1000 nM

Q: Which IC50 does the source give for `O=C1Nc2c(cc(-c3ccccc3)c3c2CN(CC2CC2)CC3)C1=NO` [8-cyclopropylmethyl-5-phenyl-6,7,8,9-tetrahydro-1H-pyrrolo-[3,2-h]-isoquinoline-2,3-dione-3-oxime] here?
A: < 1000 nM

Q: With `CN1CCc2c(-c3ccc(S(=O)(=O)N(C)C)cc3)cc3c(c2C1)NC(=O)C3=NO` [8-methyl-5-(4-(N,N-dimethylsulfamoyl)-phenyl)-6,7,8,9-tetrahydro-1H-pyrrolo-[3,2-h]-isoquinoline-2,3-dione-3-oxime] as the compound, how does the IC50 read?
A: < 1000 nM

Q: Which IC50 does the source give for `CCN1CCc2c(-c3ccccc3)cc3c(c2C1)N(C)C(=O)C3=NO` [8-ethyl-5-phenyl-6-7-8-9-tetrahydro-1-methyl-pyrrolo-[3,2-h]-isoquinoline-2,3-dione-3-oxim] here?
A: < 1000 nM

Q: Which IC50 does the source give for `CON=C1C(=O)Nc2c1cc(-c1ccccc1)c1c2CN(C)CC1` [8-methyl-5-phenyl-6-7-8-9-tetrahydro-1H-pyrrolo-[3,2-h]-isoquinoline-2,3-dione-3-methyloxim] here?
A: < 1000 nM

Same assay, conditions: extracellular pH drop from 7.4 to 6.5, group IC50 below 10 μM (of from 1 μM to 10 μM), read-out: IC50, inhibition of the proton activated response

Q: Which IC50 does the source give for `C#CCN1CCc2c(-c3ccccc3)cc3c(c2C1)NC(=O)C3=NO` [8-(2-propynyl)-5-phenyl-6,7,8,9-tetrahydro-1H-pyrrolo-[3,2-h]-isoquinoline-2,3-dione-3-oxime] here?
A: 1000 to 10000 nM

Q: Which IC50 does the source give for `CN1CCc2c(-c3ccc([N+](=O)[O-])cc3)cc3c(c2C1)NC(=O)/C3=N\O` [8-methyl-5-(4-nitrophenyl)-6,7,8,9-tetrahydro-1H-pyrrolo-[3,2-h]-isoquinoline-2,3-dione-3-oxim] here?
A: 1000 to 10000 nM

Q: With `O=C1Nc2c(cc(-c3ccccc3)c3c2CCCC3)/C1=N/O` [5-phenyl-6-7-8-9-tetrahydro-1-H-pyrrolo-[3.2-h]-naphthalene-2,3-dione-3-oxim] as the compound, how does the IC50 read?
A: 1000 to 10000 nM

Q: For `CCN1CCc2c(-c3ccccc3)cc3c(c2C1)N(C)C(=O)C3=NOC` [8-ethyl-5-phenyl-6-7-8-9-tetrahydro-1-methyl-pyrrolo-[3,2-h]-isoquinoline-2,3-dione-3-O-methyloxim], which IC50 is on record?
A: 1000 to 10000 nM

Q: With `COc1ccc(-c2cc3c(c4c2CCN(C)C4)NC(=O)C3=NO)cc1` [8-methyl-5-(4-methoxyphenyl)-6-7-8-9-tetrahydro-1-H-pyrrolo-[3.2-h]-isoquinoline-2,3-dione-3-oxim] as the compound, how does the IC50 read?
A: 1000 to 10000 nM

Q: For `COC(=O)CN1CCc2c(-c3ccccc3)cc3c(c2C1)NC(=O)C3=NO` [8-methoxycarbonylmethyl-5-phenyl-6,7,8,9-tetrahydro-1H-pyrrolo-[3,2-h]-isoquinoline-2,3-dione-3-oxime], which IC50 is on record?
A: 1000 to 10000 nM

Q: With `O=C1Nc2c(cc(-c3ccc(Cl)cc3)c3c2CCCC3)C1=NO` [5-(4-chlorophenyl)-6-7-8-9-tetrahydro-1-H-pyrrolo-[3.2-h]-naphthalene-2,3-dione-3-oxim] as the compound, how does the IC50 read?
A: 1000 to 10000 nM
